The conditions of data set [1]: Journal of Pharmaceutical Sciences, 1998, 87, 922-925; cited from earlier work.
For data set [2], the system named is pigskin used for simulated human skin.
From the text: Freezing pigskin used for simulated human skin was thawed; sites of pesticide application were cleaned and disinfected after thawed;

Regarding `O=C(O)CN(CC(=O)O)Cc1cc2c(cc1O)Oc1cc(O)c(CN(CC(=O)O)CC(=O)O)cc1C21OC(=O)c2ccccc21` [calcein], in data set [1], the “transdermal permeability speed, micro-needle versus traditional transdermal drug delivery” value is on record as “increased by four orders of magnitude”.
Regarding bovine serum albumin, the penetration of skin entry in data set [2] is given as “could penetrate the skin”.
